≈ marks a conversion by molar mass, not a printed value.
Key:
femoral blood flow = test: Effects on Femoral Blood Flow in the Dog (Test C); assay type: in vivo, dog (mongrel); details: anesthetized dog, intraarterial 0.001 to 10 mcg
Description: C. Evaluation of the Effects of Prostaglandin Analogs III on the Femoral Blood Flow in the Dog
The peripheral vasodilator or constrictor effects of test compounds were determined in mongrel dogs of either sex, weighing between 10 and 20 kg anesthestized intravenously with 35 mg/kg of sodium pentobarbital. An external iliac artery was dissected immediately above the femoral arch for a length of approximately 5 cm and a previously calibrated, non-connulating electromagnetic flowmeter sensor with a lumen between 2.5 and 3.5 mm was placed snugly around the vessel. Cannulas were placed in a branch of the artery arising distally to the location of the flowmeter sensor for intraarterial drug administrations, in the contralateral femoral artery for systemic blood pressure recordings and in the trachea for artificial respiration with room air. Femoral blood flow and systemic blood pressure were continuously recorded with an electromagnetic flowmeter and pressure transducer, respectively.
After an adequate control period, test compounds were injected intraarterially at one log-spaced doses ranging from 0.001 to 10 mcg., in a volume of 0.5 ml and at 5 to 10 min intervals. Maximum changes in bloodflow, as well as any variations in blood pressure, were tabulated for each dose in absolute values (ml/min and mmHg). The calculations were made taking as control values those existing immediately before administration of each dose. The direction of the observed change (+ for increase and - for decrease) was also noted. The dose changing bloodflow by 100 ml/min (ED100 ml/min) was calculated graphically and was used for scoring activity as follows: […]

blood pressure = test: Effects on Blood Pressure and Heart Rate in the Anesthetized Cat (Test D); assay type: in vivo; details: Felis catus, iv, i.v. 0.01 to 10.0 mcg/kg, scored on hypotension, read-out: Activity value, Test D: Normal Feline Blood Pressure and Heart Rate (ED50 mmHg)
Description: D. Evaluation of the Effects of Prostaglandin Analogs III on Blood Pressure and Heart Rate in the Anesthetized Cat
The acute effects of test compounds on blood pressure and heart rate were determined in cats of either sex anesthetized with a mixture of pentobarbital sodium (35 mg/kg, i.v.) and barbital sodium (100 mg/kg, i.v.). Cannulas were placed in the trachea to allow adequate spontaneous ventilation, in a femoral artery for blood pressure recording with a strain gage transducer, and in a saphenous vein for drug administration. Heart rate was recorded by means of a cardiotachometer driven by the R wave of the electrocardiogram. After a period of 10 min of stable recordings of blood pressure and heart rate, the test compound was administered intravenously at doses increasing from 0.01 to 10.0 mcg/kg, spaced one log and injected at 10 min intervals. All doses were injected in a volume of 0.1 ml/kg. Modifications of blood pressure and heart rate induced by the test compound were expressed both in absolute units (mmHg and beats/min) and as percent of values recorded immediately before administration of each dose. Biphasic responses were tabulated in the order in which they occur. The direction of the observed changes was also noted (+ for increase and - for decrease).
Activity of compounds in this test was judged only on the basis of the degree of hypotension observed. Thus, the ED50 mmHg (dose decreasing blood pressure by 50 mmHg) was calculated graphically and the compound scored according to the following scale: […]

[1] = test system: blood pressure (hypertensive rat); test: Effects on Blood Pressure in the Hypertensive Rat (Test E); assay type: in vivo; set-up: key: 0: Not significant at any time interval; 1: Significant at one time interval; 2: Significant at two time intervals; 3: Significant at three time intervals; 4: Significant at all four intervals; details: 1 mg/kg intraperitoneal, 2, 4, 6 and 8 hr
Description: E. Evaluation of the Effects of Prostaglandin Analogs III on Blood Pressure in the Hypertensive Rat
The acute antihypertensive activity of test compounds is determined in rats made hypertensive by the procedure of Grollman (A. Proc. Soc. Exper. Biol. Med., 57:102, [1944]). Female rats weighing between 60 and 100 g are anesthetized with ether, the right kidney approached through a flank retroperitoneal incision, decapsulated and tied with a figure-of-eight ligature. The animals are left to recover and two weeks later are again anesthetized and the contralateral kidney removed. Four weeks after the second operation the rats are subjected to indirect blood pressure measurements and those showing systolic pressure values greater than 160 mmHg are selected for drug testing.
Blood pressure is measured in the tail with an inflatable occluding cuff placed at the base of the extremity and a pulse detector located distally. The cuff is inflated to approximately 300 mmHg and is slowly deflated until pulsations appear, indicating the level of systolic pressure; diastolic pressure is not recorded by this procedure. All measurements are carried out in unanesthetized, unsedated animals maintained in a warm environment during the recording procedure and for at least 6 hr before. In all cases, three pressure readings are obtained in succession and mean values are calculated thereof.
Experiments are carried out in groups of five hypertensive rats in which systolic pressure is determined immediately before and 2, 4, 6 and 8 hr after the intraperitoneal administration of the test compound at a dose of 1 mg/kg. Drugs are diluted from stock solutions with phosphate buffer (Lee et al., Prostaglandins 3:29 [1973]), so as to inject this quantity in a volume of 1 ml/kg. Changes from control blood pressure values are calculated for each interval both in mmHg and in per-cent, and evaluated for significance by means of Wilcoxon's signed rank test (Wilcoxon and Wilcox, Some rapid approximate statistical procedures, Lederle Laboratories, Pearl River [1964]).

rat uterus = test: Effects on the Rat Uterus (Test F); details: rat uterus segments, 0.001 to 10.0 mcg/ml, 29° C.; read-out: Activity value, Test F: Effects on Rat Uterus (ED50, response of 50% that of carbachol)
Description: F. Evaluation of the Effects of Prostaglandin Analogs III on the Rat Uterus
The uterine stimulant effect of test compounds is determined in segments of uterus obtained from rats (140-160 g) pretreated subcutaneously with 1 mg/kg of diethylstibesterol 18 hr before the experiment. The tissues are placed in 10 ml chambers filled with de-Jalon solution at 29° C. and bubbled with 95% O2 and 5% CO2, and prepared for isometric recording with force displacement transducers. Preparations are stretched to an initial tension of 1 g and are left undisturbed for 30 min, after which two responses to 1 mcg/ml of carbachol added to the bath at a 10 min interval, are obtained (the value of the second response is recorded). Responses to increasing concentrations of the test compound (0.001 to 10.0 mcg/ml with one log intervals) are then recorded every 10 min. Preparations are washed four times after each response. All doses of drugs are administered in a 0.1 ml volume. Since it has been observed that the magnitude of the second response to carbachol, which is approximately 10% greater than the first, is close to the maximal response of the tissue, such value is taken as a measure of the sensititity of the particular segment. Responses to each concentration of the test compound are expressed in terms of percentage of the second response to carbachol and the ED50 (dose producing a response of 50% that of carbachol) is calculated graphically. Activity is scored according to the following scale: […]

Row | SMILES | EC50 (rat uterus) | Activity value, Test C: Increase in Canidae Femoral Blood Flow (ED100 ml/min) (femoral blood flow) | ED (50 mmHg) (blood pressure) | Activity value, Test E: Effects on Blood Pressure in Hypertensive Rat (blood pressure decrease) [1]
1 | CCC1CC([C@@H](O)/C=C/[C@H]2[C@H](O)CC(=O)[C@@H]2CCCCCCC(=O)OC)C1 (stereo partly drawn) [TR-4248, Methyl 11α,15R-dihydroxy-16,18-methano-9-oxoprost-13E-en-1-oate] | 0.101 to 1 mg/L (≈ 0.265 to 2.63 µM) | 2 (0.11-1.0) | 0.00011 to 0.001 mg/kg | 1
2 | CCC1CC([C@H](O)/C=C/[C@H]2[C@H](O)CC(=O)[C@@H]2CCCCCCC(=O)OC)C1 (stereo partly drawn) [TR-4249, Methyl 11α,15S-dihydroxy-16,18-methano-9-oxoprost-13E-en-1-oate] | > 10 mg/L | 0 (>10.0) | > 0.0101 mg/kg | 0
3 | CCC1CC([C@@H](O)/C=C/[C@H]2C=CC(=O)[C@@H]2CCCCCCCOC(C)=O)C1 (stereo partly drawn) [TR-4568, 1-Acetoxy-15R-hydroxy-16,18-methanoprosta-10,13E-dien-9-one] | > 10 mg/L | 0 (>10.0) | > 0.0101 mg/kg | 0
4 | CCC1CC([C@@H](O)/C=C/[C@H]2[C@H](O)CC(=O)[C@@H]2CCCCCCCO)C1 (stereo partly drawn) [TR-4569, 16,18-Methano-1,11α,15R-trihydroxyprost-13E-en-9-one] | > 10 mg/L | 0 (>10.0) | > 0.0101 mg/kg | 0
5 | CCC1CC([C@H](O)/C=C/[C@H]2[C@H](O)CC(=O)[C@@H]2CCCCCCCO)C1 (stereo partly drawn) [TR-4570, 16,18-Methano-1,11α,15S-trihydroxyprost-13E-en-9-one] | 0.101 to 1 mg/L (≈ 0.287 to 2.84 µM) | 0 (>10.0) | > 0.0101 mg/kg | 0
6 | CCC1CC(C)([C@@H](O)/C=C/[C@H]2[C@H](O)CC(=O)[C@@H]2CCCCCCC(=O)OC)C1 (stereo partly drawn) [TR-4682, Methyl 11α,15S-dihydroxy-16,18-methano-16-methyl-9-oxoprost-13E-en-1-oate] | > 10 mg/L | 3 (0.01-0.1) | 0.00101 to 0.01 mg/kg | 0
7 | COC(=O)CCCCCC[C@H]1C(=O)C[C@@H](O)[C@@H]1/C=C/[C@@H](O)C1(C)CCC1 [TR-4690, Methyl 16,19-cyclo-11α,15R-dihydroxy-16-methyl-20-nor-9-oxoprost-13E-en-1-oate] | > 10 mg/L | 2 (0.11-1.0) | 0.00101 to 0.01 mg/kg | 0
8 | COC(=O)CCCCCC[C@H]1C(=O)C[C@@H](O)[C@@H]1/C=C/[C@H](O)C1(C)CCC1 [TR-4691, Methyl 16,19-cyclo-11α,15S-dihydroxy-16-methyl-20-nor-9-oxoprost-13E-en-1-oate] | > 10 mg/L | 2 (0.11-1.0) | > 0.0101 mg/kg | 0

Continued, in another order:

Row | EC50 (rat uterus) | SMILES | Activity value, Test C: Increase in Canidae Femoral Blood Flow (ED100 ml/min) (femoral blood flow) | ED (50 mmHg) (blood pressure) | Activity value, Test E: Effects on Blood Pressure in Hypertensive Rat (blood pressure decrease) [1]
9 | > 10 mg/L | CCCCC1([C@H](O)/C=C/[C@H]2[C@H](O)CC(=O)[C@@H]2CCCCCCCO)CCC1 [TR-4645, 16,16-Propano-1,11α,15R-trihydroxyprost-13E-en-9-one] | 1 (1.0.-10.0) | > 0.0101 mg/kg | 0
10 | > 10 mg/L | CCCCC1([C@@H](O)/C=C/[C@H]2[C@H](O)CC(=O)[C@@H]2CCCCCCCO)CCC1 [TR-4646, 16,16-Propano-1,11α,15S-trihydroxyprost-13E-en-9-one] | 0 (>10.0) | > 0.0101 mg/kg | 0
11 | > 10 mg/L | CC1([C@H](O)/C=C/[C@H]2[C@H](O)CC(=O)[C@@H]2CCCCCCCO)CCC1 [TR-4673, 16,19-Cyclo-16-methyl-20-nor-1,11α,15R-trihydroxyprost-13E-en-9-one] | 0 (>10.0) | > 0.0101 mg/kg | 1
12 | 0.01 to 0.1 mg/L (≈ 0.0245 to 0.245 µM) | CCCCC1([C@@H](O)/C=C/[C@H]2[C@H](O)CC(=O)[C@@H]2CCCCCCC(=O)OC)CCC1 [TR-4677, Methyl 11α,15S-dihydroxy-9-oxo-16-,16-propanoprost-13E-en-1-oate] | 0 (>10.0) | > 0.0101 mg/kg | 0
13 | > 10 mg/L | CCC1CC(C)([C@H](O)/C=C/[C@H]2[C@H](O)CC(=O)[C@@H]2CCCCCCCO)C1 (stereo partly drawn) [TR-4688, 16,18-Methano-16-methyl-1,11α,15R-trihydroxyprost-13E-en-9-onc] | 0 (>10.0) | > 0.0101 mg/kg | 0

Source: patent US4220795A, “Cyclobutyl substituted derivatives of prostaglandin analogs” (Miles Laboratories, Inc., priority 1978, dated 1980)
